We go through 16 compounds from PubChem BioAssay (NCI).

What all share (test): NCI tumour cell line growth inhibition, 48 h
In test [1] the test system is 786-0 renal.
In test [2] the test system is ACHN renal.
The test system of test [3] is CAKI-1 renal.
Test [4] deals with EKVX NSCLC.
The test system of test [5] is K-562 leukemia.
Test [6] deals with KM12 colon.
Test [7] concerns M14 melanoma.
Test [8] deals with MCF7 breast.
Test [9] relates to PC-3 prostate.
Test [10] deals with SK-MEL-5 melanoma.

Several values for one entry are separate records, joined by “and”; a condition that tells them apart may be missing. Identical values can stand only once.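 Following 48 hours of exposure in 96-well plates, responses at five concentrations were used to interpolate endpoints linearly. GI50 marks 50% less growth. TGI: concentration producing complete growth inhibition.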 A value given as a limit tells only on which side of the number the result lay.

Take `[Cl][Hg][c]1ccc2ccccc2c1`: the GI50 is 1.76 µM in test [1]; 4.33 µM in test [2]; 3.64 µM in [3]; 3.07 µM in [4]; 0.862 µM in test [5]; 7.66 µM in test [6]. Also, the GI50 was 1.46 µM in test [7], 2.07 µM in test [8], 3.92 µM in [9] and 1.25 µM in test [10]. Also, the TGI was 3.21 µM in test [1]; 11.8 µM in [2]; 6.97 µM in test [3]; 7.96 µM in test [4]; 9.77 µM in test [5]; 22.6 µM in test [6]. For the same compound, the TGI in test [7] is 2.96 µM; in test [8] it was 5.61 µM; in test [9], 11.8 µM; in [10], 3.13 µM.
Turning to `Cc1cc2c3c([n+](C)c4ccc(F)cc4c3c1)-c1cc(F)ccc1N2C`, the GI50 in test [1] was 6.24 µM; in test [2], 39.1 µM; in test [3] it was more than 100 µM; in [4] it was 62.4 µM; in [5], 4.74 µM; in test [6], 4.81 µM. Moreover, the GI50 in test [7] was 23.4 µM; in test [8] it was 14.3 µM; in test [9] it was 19.9 µM; in test [10] it was 5.29 µM. Moreover, the TGI in test [1] was more than 100 µM; in [2], more than 100 µM; in test [3] it was more than 100 µM; in test [4], more than 100 µM; in test [5] it was more than 100 µM; in test [6] it was 44.1 µM. Besides, the TGI in test [7] was 62.9 µM; in test [8] it was 44.6 µM; in test [9] it was 77.7 µM; in test [10], 22.1 µM.
`CN(C)C(=S)/N=c1\ssc(=S)n1Cc1ccco1`: the TGI was more than 46.4 µM in [1]; more than 100 µM in test [2]; more than 100 µM in test [3]; more than 100 µM in test [4]; more than 55.7 µM in test [5]; more than 100 µM in [6]. Further, the TGI in [7] is more than 100 µM; in test [8], more than 100 µM; in test [9] it was more than 100 µM; in test [10], 38.2 µM.
Regarding `O=C(N/N=C/c1cc(Cl)ccc1O)c1ccccc1Nc1ccnc(C(F)(F)F)c1`, the GI50 in test [1] was 0.465 µM; in test [2], 0.3 µM; in test [3], 0.405 µM; in test [4], 0.25 µM; in [5] it was 0.686 µM; in [6], 0.604 µM. Moreover, the GI50 in test [7] was 0.407 µM; in test [8], 0.351 µM; in test [9] it was 1.01 µM; in test [10] it was 0.57 µM. The TGI in [1] is 4.29 µM; in test [2], 11.2 µM; in test [3], 3.87 µM; in test [4] it was 4.86 µM; in [5] it was 14.5 µM; in test [6], 11.5 µM. The TGI came out at 2.26 µM in [7], 30.3 µM in [8], 35.6 µM in [9] and 5.33 µM in [10].
Take `COc1cc(C2c3cc4c(cc3[C@@H](Nc3ccc([N+](=O)[O-])cc3)C3COC(=O)[C@H]23)OCO4)cc(OC)c1O` (stereo partly drawn): the GI50 is 0.377 µM in [1], 0.154 µM in [3], 0.543 µM in test [7] and 0.74 µM in [10]. Moreover, the TGI is 3.35 µM in [1]; 2.82 µM in test [2]; 0.941 µM and 5.06 µM in test [3]; 17.2 µM in test [4]; 39.4 µM in test [5]; 6.42 µM in test [6]. Also, the TGI in [7] is 12.7 µM; in test [8], more than 43.1 µM; in test [9], more than 100 µM; in test [10], 3.94 µM.
For the compound `Cc1ccc(N=Nc2c(O)ccc3n[nH]nc23)cc1`, the GI50 in test [1] was 20.3 µM; in [2] it was 11.5 µM; in test [3], 4.63 µM; in test [4] it was 11.6 µM; in test [5], 9.06 µM; in test [6], 10.8 µM. Further, the GI50 is 27.8 µM in [7], 9.25 µM in test [8], 5.99 µM in test [9] and 3.19 µM in [10]. In addition, the TGI was more than 100 µM in test [1]; 69.2 µM in [2]; 38.9 µM in [3]; 50 µM in test [4]; more than 100 µM in [5]; 37.9 µM in [6]. The TGI was more than 100 µM in [7], 97.5 µM in test [8], more than 100 µM in [9] and 13.2 µM in test [10].
Take `Cc1ccc(NC(=S)C#N)c(C)c1`: the TGI in test [1], in test [2], in [3], in test [4], in test [5] and in test [6] was more than 100 µM each time. Also, the TGI in [7], in test [8], in [9] and in test [10] was more than 100 µM in each case.
Take `CSc1ccc(NC(=O)Nc2cc(C)ccn2)cc1`: the TGI in test [1], in test [2], in test [3], in test [4], in test [5] and in [6] was more than 100 µM in each case. Besides, the TGI in test [7], in test [8], in [9] and in [10] was more than 100 µM in each case.
Consider `C[C@H]1COCCN1c1nc(-c2cnc(N)cc2C(F)F)nc(N2CCOCC2)n1`, for which the GI50 is 0.181 µM in [1]; 0.207 µM in test [2]; 0.102 µM in test [3]; 0.178 µM in [4]; 0.692 µM in test [5]; 0.318 µM in test [6]. Further, the GI50 in [7] was 0.129 µM; in test [8] it was 0.0487 µM; in test [9] it was 0.0985 µM; in test [10], 0.15 µM. For the same compound, the TGI in test [1] is 5.15 µM; in test [2] it was more than 100 µM; in test [4] it was 2 µM; in test [5], more than 100 µM; in test [6], 41 µM; in test [7], 29.7 µM. Moreover, the TGI is more than 100 µM in [8], more than 100 µM in test [9] and 0.651 µM in test [10].
Turning to `Oc1ccc(Cl)cc1Sc1cc(Cl)ccc1O`, the GI50 is 11.9 µM in [1]; 2.72 µM in test [2]; 6.82 µM in test [3]; 2.58 µM in test [4]; 3.8 µM in [5]; 3.26 µM in [6]. Further, the GI50 in test [7] was 3.83 µM; in test [8] it was 3.33 µM; in test [9] it was 2.72 µM; in test [10], 1.92 µM. For the same compound, the TGI in test [1] is 33 µM and 25.2 µM; in test [2], 23.1 µM and 8.27 µM; in test [3], 34.8 µM and 29.6 µM; in [4], 33 µM and 8.19 µM; in test [5], more than 100 µM; in test [6], 31.4 µM and 9.18 µM. Besides, the TGI in test [7] is 26 µM and 12.7 µM; in test [8] it was 34.5 µM and 10.7 µM; in test [9], 30.1 µM and 9.58 µM; in [10] it was 15.7 µM and 4.06 µM.
On to `CCC[n+]1cc2cc3c(cc2c2c1-c1cc4c(cc1C2)OCO4)OCO3` (tested in a mixture with another compound), for which the GI50 in [1] is 0.46 µM; in test [2] it was 12.1 µM; in test [3], 25.8 µM; in test [4] it was 2.18 µM; in [5], 0.581 µM; in test [6] it was 0.374 µM. In addition, the GI50 was 2.49 µM in [7], 0.468 µM in test [8], 0.986 µM in test [9] and 0.371 µM in [10]. Moreover, the TGI in test [1] was 10 µM; in [2] it was 51.3 µM; in test [3], more than 91.8 µM; in test [4], 19.2 µM; in [5] it was more than 35 µM; in test [6], 5.33 µM. Further, the TGI stood at 7.81 µM in [7], 6.34 µM in test [8], 7.16 µM in test [9] and 1.6 µM in test [10].
With `CCN(CC)S(=O)(=O)c1cccc(-c2ccc3c(NC(=O)C4CC4)n[nH]c3c2)c1`, the GI50 in [1] was 2.5 µM; in test [2] it was 3.54 µM; in test [3] it was 2.28 µM; in [4], 2.19 µM; in test [5] it was 0.381 µM; in test [6], 1.08 µM. Further, the GI50 in test [7] is 1.47 µM; in test [8], 1.19 µM; in test [9], 2.11 µM; in test [10], 0.986 µM. Moreover, the TGI in test [1], in test [2], in test [3], in test [4], in test [5] and in test [6] was more than 6.25 µM throughout. The TGI in test [7] is more than 6.25 µM; in [8], more than 6.25 µM; in test [9] it was more than 6.25 µM; in test [10], 3.58 µM.
For `COC(=O)c1ccc(NC(=O)c2ccc(NC3=C(Cl)C(=O)N(Cc4ccccc4)C3=O)cc2)cc1`, the GI50 was 10.9 µM in [1]; 17.2 µM in test [2]; 2.49 µM in [3]; 45.4 µM in test [4]; 19 µM in [5]; 25.7 µM in test [6]. For the same compound, the GI50 in test [7] is 17.1 µM; in test [8], 7.16 µM; in [9], 13.7 µM; in test [10], 34.7 µM. Moreover, the TGI is 22.9 µM in [1]; 31 µM in [2]; 6.4 µM in test [3]; more than 100 µM in [4]; more than 100 µM in test [5]; more than 100 µM in test [6]. In addition, the TGI was 30.8 µM in test [7], 41.3 µM in test [8], 26.6 µM in test [9] and more than 100 µM in test [10].
As to `CN(C)c1cc2c(Nc3ccc4c(cnn4Cc4ccccc4)c3)ncnc2cn1`, the GI50 in test [1] was 8.76 µM; in test [2], 2.1 µM; in [3] it was 0.299 µM; in test [4] it was 0.108 µM; in test [5], 9.66 µM; in test [6], 7.29 µM. Besides, the GI50 is 14.8 µM in test [7], 16.5 µM in test [8], 10 µM in test [9] and 7.61 µM in test [10]. Further, the TGI in test [1] is more than 25 µM; in [2], more than 25 µM; in test [3], more than 21.5 µM; in [4] it was more than 8.76 µM; in [5] it was more than 25 µM; in test [6] it was more than 20 µM. The TGI in test [7] is more than 25 µM; in test [8], more than 25 µM; in [9], more than 25 µM; in [10], more than 20.5 µM.
On to `Cc1ccnc2c(NC(C)CCCN)cc(O)c(O)c12` (stereo not drawn), for which the GI50 in test [1] was 71.2 µM; in test [2], more than 100 µM; in test [3], 38.7 µM; in test [4], 21.3 µM; in test [5] it was 26.1 µM; in [6], 31.5 µM. Besides, the GI50 was 29.7 µM in test [7], 1.97 µM in test [8], 17.1 µM in test [9] and 17.6 µM in [10]. For the same compound, the TGI in [1] is more than 100 µM; in test [2] it was more than 100 µM; in test [3], more than 100 µM; in test [4], 61.8 µM; in [5], more than 100 µM; in test [6], more than 100 µM. Moreover, the TGI in test [7] was more than 100 µM; in test [8] it was 5.9 µM; in test [9], 53.8 µM; in test [10], 42.1 µM.
In the case of `COc1cc2c3c(n(CCN4CCOCC4)c(=O)c2cc1OC)-c1ccccc1C3=O`, the GI50 is 88.9 µM in test [1]; 35 µM in test [2]; 32.9 µM in [3]; more than 100 µM in test [4]; 99.3 µM in [5]; more than 100 µM in [6]. Moreover, the GI50 is more than 100 µM in test [7], 37.8 µM in test [8], more than 100 µM in test [9] and more than 100 µM in test [10]. In addition, the TGI in test [1] was more than 100 µM; in test [2], more than 100 µM; in [3], 72.9 µM; in [4], more than 100 µM; in test [5], more than 100 µM; in test [6], more than 100 µM. Moreover, the TGI in [7], in [8], in [9] and in [10] was more than 100 µM in each case.
